For 26 compounds, IC50 results are on record in patent publication US6656956B2, “Benzimidazole derivatives, processes for preparing them and their use as pharmaceutical compositions” (Boehringer Ingelheim Pharma KG, priority 2001, dated 2003).

This assay concerns the target T1, rh beta tryptase (Homo sapiens, UniProt Q15661).
T1 construct: purchased Promega
Kind of assay: tryptase inhibition in vitro test (cleavage of N-p-tosyl-Gly-Pro-Lys-para-nitroaniline, p-nitroaniline measured at 405 nm). Format: biochemical. Conditions: rh beta tryptase 0.91 U/ml, substrate 0.6 mM, Tris HCl buffer with calcium and heparin, pH 7.4, 37° C., 5 minutes incubation; read-out: Tryptase-inhibiting activity. As for the experimental part:
The compounds according to the invention are characterised by their tryptase-inhibiting activity. This ability to inhibit tryptase was investigated using the test described below.
The measurement is carried out in Tris HCl buffer (100 mM), which additionally contains calcium (5 mM) and heparin ([…]), at pH 7.4. The standard used is rh beta tryptase which may be obtained commercially from Promega, for example. The substrate used is N-p-tosyl-Gly-Pro-Lys-para-nitroaniline in a concentration of 0.6 mM. The substrate is digested with tryptase to form p-nitroaniline which can be measured at 405 nm. Usually, an incubation period of 5 minutes and an incubation temperature of 37° C. are chosen. The enzyme activity used is 0.91 U/ml. The measurements are carried out in an Autoanalyser (Cobas Bio) made by Hofmann LaRoche. The potential inhibitory substances are used in concentrations of 10 μM in the screening, the inhibition of the tryptase being given in percent. The IC50 is determined at over 70% inhibition (concentration at which 50% of the enzyme activity is inhibited). After 5 minutes' pre-incubation of the potential inhibitory substances, the substrate is added to start the reaction, the formation of p-nitroaniline being taken as a measurement of the enzyme activity after 5 minutes, after testing the linearity.

Structures can show the parent of a compound that is named as a salt.

T1 sequence (Q15661 31-275): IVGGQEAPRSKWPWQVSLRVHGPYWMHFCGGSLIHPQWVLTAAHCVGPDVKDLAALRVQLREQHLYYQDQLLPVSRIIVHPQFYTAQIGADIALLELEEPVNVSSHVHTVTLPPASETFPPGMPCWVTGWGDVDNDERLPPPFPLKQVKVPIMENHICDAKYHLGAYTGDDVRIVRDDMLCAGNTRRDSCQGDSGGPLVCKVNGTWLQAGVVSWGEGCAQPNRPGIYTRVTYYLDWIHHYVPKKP

On to `Cn1c(CCc2ccc(C(=N)N)cc2)nc2cc(N(Cc3ccncc3)C(=O)CN3CCC(Nc4ccccn4)CC3)ccc21` [Example 46, N-{2-[2-(4-Amidinophenyl)-ethyl]-1-methyl-benzimidazol-5-yl}-N-[4-pyridylmethyl]-2-[4-(2-pyridylamino)-piperid-1-yl]-acetamide, dihydrochloride], for which the IC50 was 4 to 30 nM.

In the case of `CN(C(=O)CN1CCC(Nc2ccccc2Br)CC1)c1ccc2c(c1)nc(CCc1ccc(C(=N)N)cc1)n2C` [Example 35, N-{2-[2-(4-Amidinophenyl)-ethyl]-1-methyl-benzimidazol-5-yl}-N-methyl-2-[4-(2-bromophenylamino)-piperid-1-yl]-acetamide, dihydrochloride], the IC50 fell in the range of 0.5 to 3 nM. The value for `Cn1c(CCc2ccc(C(=N)N)cc2)nc2cc(N(Cc3cccc4ccccc34)C(=O)CN3CCC(Nc4ccc5ccccc5c4)CC3)ccc21` [Example 22, N-{2-[2-(4-Amidinophenyl)-ethyl]-1-methyl-benzimidazol-5-yl}-N-[naphth-1-ylmethyl]-2-[4-(2-naphthylamino)-piperid-1-yl]-acetamide, dihydrochloride] was 0.5 to 3 nM. For “N-{2-[2-(4-Amidinophenyl)-ethyl]-1-methyl-benzimidazol-5- yl}-N-[naphth-1-ylmethyl]-N′-[4-(2-naphthylmethylamino)]- urea, hydrochloride [Example 80]”, the IC50 was 31 to 1000 nM.

With `Cn1c(CCc2ccc(C(=N)N)cc2)nc2cc(N(Cc3cccc4ccccc34)C(=O)CN3CCC(N)CC3)ccc21` [Example 15, N-{2-[2-(4-Amidinophenyl)-ethyl]-1-methyl-benzimidazol-5-yl}-N-[naphth-1-ylmethyl]-2-[4-amino-piperid-1-yl]-acetamide, trihydrochloride], the IC50 lay in the range of 4 to 30 nM. Take `Cn1c(CCc2ccc(C(=N)N)cc2)nc2cc(N(Cc3cccc4ccccc34)C(=O)CN3CCC(Nc4ccccc4)CC3)ccc21` [Example 1, N-{2-[2-(4-Amidinophenyl)-ethyl]-1-methyl-benzimidazol-5-yl}-N-[naphth-1-ylmethyl]-2-(4-phenylamino-piperid-1-yl)-acetamide, Dihydrochloride]: the IC50 was in the range of 4 to 30 nM. For `Cn1c(CCc2ccc(C(=N)N)cc2)nc2cc(N(Cc3cccc(N)c3)C(=O)CN3CCC(Nc4ccccn4)CC3)ccc21` [Example 55, N-{2-[2-(4-Amidinophenyl)-ethyl]-1-methyl-benzimidazol-5-yl}-N-[3-aminophenyl-methyl]-2-[4-(2-pyridylamino)-piperid-1-yl]-acetamide, dihydrochloride], the IC50 lay within 4 to 30 nM. The value for `CN(CCCO)C1CCN(CC(=O)N(Cc2cccc3ccccc23)c2ccc3c(c2)nc(CCc2ccc(C(=N)N)cc2)n3C)CC1` [Example 2, N-{2-[2-(4-Amidinophenyl)-ethyl]-1-methyl-benzimidazol-5-yl}-N-[naphth-1-ylmethyl]-2-{4-[N-methyl-N-(3-hydroxypropyl)-amino]-piperid-1-yl}-acetamide, Trihydrochloride] was 4 to 30 nM; that for `Cn1c(CCc2ccc(C(=N)N)cc2)nc2cc(N(Cc3ccncc3)C(=O)CN3CCC(Nc4ccccc4)CC3)ccc21` [Example 45, N-{2-[2-(4-Amidinophenyl)-ethyl]-1-methyl-benzimidazol-5-yl}-N-[4-pyridylmethyl]-2-(4-phenylamino-piperid-1-yl)-acetamide, dihydrochloride] was 4 to 30 nM. Take `CN(C(=O)CN1CCC(Nc2ccc(F)cc2Cl)CC1)c1ccc2c(c1)nc(CCc1ccc(C(=N)N)cc1)n2C` [Example 33, N-{2-[2-(4-Amidinophenyl)-ethyl]-1-methyl-benzimidazol-5-yl}-N-methyl-2-[4-(2-chloro-4-fluorophenylamino)-piperid-1-yl]-acetamide, dihydrochloride]: the IC50 was in the range of 0.5 to 3 nM.

In the case of `CN(C(=O)CN1CCC(Nc2ccc(Cl)c(Cl)c2)CC1)c1ccc2c(c1)nc(CCc1ccc(C(=N)N)cc1)n2C` [Example 107, N-{2-[2-(4-Amidinophenyl)-ethyl]-1-methyl-benzimidazol-5-yl}-N-methyl-2-[4-(3,4-dichlorophenylamino)-piperid-1-yl]-acetamide, dihydrochloride], the IC50 lay within 0.5 to 3 nM. As for `CN(C(=O)CN1CCC(Nc2ccccc2C(C)(C)C)CC1)c1ccc2c(c1)nc(CCc1ccc(C(=N)N)cc1)n2C` [Example 64, dihydrochloride], the IC50 fell in the range of 4 to 30 nM. `Cn1c(CCc2ccc(C(=N)N)cc2)nc2cc(N(Cc3cccc4ccccc34)C(=O)NC3(Cc4ccccc4)CCNCC3)ccc21` [Example 77, N-{2-[2-(4-Amidinophenyl)-ethyl]-1-methyl-benzimidazol-5-yl}-N-[naphth-1-ylmethyl]-N′-[4-(benzyl)-piperidin-4-yl)-urea, hydrochloride]: the IC50 was in the range of 4 to 30 nM. The value for `Cn1c(CCc2ccc(C(=N)N)cc2)nc2cc(N(Cc3cccc4ccccc34)C(=O)CN3CCC(Nc4ccc(OCc5ccccc5)cc4)CC3)ccc21` [Example 17, N-{2-[2-(4-Amidinophenyl)-ethyl]-1-methyl-benzimidazol-5-yl}-N-[naphth-1-ylmethyl]-2-[4-(4-benzyloxy-phenylamino)-piperid-1-yl]-acetamide, dihydrochloride] was 4 to 30 nM; that for `CN(C(=O)CN1CCC(Nc2ccc(F)cc2Cl)CC1)c1ccc2c(c1)nc(CCc1ccc(CN)cc1)n2C` [Example 84, Ditrifluoroacetate] was 4 to 30 nM; that for `Cn1c(CCc2ccc(C(=N)N)cc2)nc2cc(N(Cc3ccccc3)C(=O)CN3CCC(Nc4ccccc4Cl)CC3)ccc21` [Example 58, N-{2-[2-(4-Amidinophenyl)-ethyl]-1-methyl-benzimidazol-5-yl}-N-benzyl-2-[4-(2-chlorophenylamino)-piperid-1-yl]-acetamide, dihydrochloride] was 0.5 to 3 nM. As for `CN(C(=O)CN1CCC(N(C)c2ccc3ccccc3c2)CC1)c1ccc2c(c1)nc(CCc1ccc(C(=N)N)cc1)n2C` [Example 34, N-{2-[2-(4-Amidinophenyl)-ethyl]-1-methyl-benzimidazol-5-yl}-N-methyl-2-[4-(2-naphthyl-N-methylamino)-piperid-1-yl]-acetamide, dihydrochloride], the figure is 4 to 30 nM; as for `CN(C(=O)CN1CCC(Nc2ccc(Cl)cc2)CC1)c1ccc2c(c1)nc(CCc1ccc(C(=N)N)cc1)n2C` [Example 105, N-{2-[2-(4-Amidinophenyl)-ethyl]-1-methyl-benzimidazol-5-yl}-N-methyl-2-[4-(4-chlorophenylamino)-piperid-1-yl]-acetamide, dihydrochloride], 0.5 to 3 nM; as for `CN(C)CCCN(C)C(=O)Nc1ccc2c(c1)nc(CCc1ccc(C(=N)N)cc1)n2C` [Example 81, N-{2-[2-(4-Amidinophenyl)-ethyl]-1-methyl-benzimidazol-5-yl}-N′-methyl-N′-(3-dimethylaminopropyl)-urea, hydrochloride], 31 to 1000 nM. Turning to `Cn1c(CCc2ccc(C(=N)N)cc2)nc2cc(N(Cc3cccc4ccccc34)C(=O)CN3CCC(NC(=O)c4ccccc4)CC3)ccc21` [Example 8, N-{2-[2-(4-Amidinophenyl)-ethyl]-1-methyl-benzimidazol-5-yl}-N-[naphth-1-ylmethyl]-2-[4-benzoic acid amide-piperid-1-yl]-acetamide, dihydrochloride], the IC50 fell in the range of 4 to 30 nM. The value for `Cn1c(CCc2ccc(C(=N)N)cc2)nc2cc(NC(=O)N3CCC(Nc4ccccn4)CC3)ccc21` [Example 82, N-{2-[2-(4-Amidinophenyl)-ethyl]-1-methyl-benzimidazol-5-yl}-N′-[4-(2-pyridyl)-amino]-piperid-1-ine urea, hydrochloride] was 31 to 1000 nM. With `CN(C(=O)CN1CCC(Nc2ccccc2)CC1)c1ccc2c(c1)nc(CCc1ccc(C(=N)N)cc1)n2C` [Example 108, N-{2-[2-(4-Amidinophenyl)-ethyl]-1-methyl-benzimidazol-5-yl}-N-methyl-2-[4-(phenylamino)-piperid-1-yl]-acetamide, dihydrochloride], the IC50 lay in the range of 4 to 30 nM.

Regarding `Cn1c(CCc2ccc(C(=N)N)cc2)nc2cc(N(Cc3cccc4ccccc34)C(=O)CN3CCC(Nc4ccc(-c5ccccc5)cc4)CC3)ccc21` [Example 23, N-{2-[2-(4-Amidinophenyl)-ethyl]-1-methyl-benzimidazol-5-yl}-N-[naphth-1-ylmethyl]-2-[4-(4-biphenylamino)-piperid-1-yl]-acetamide, dihydrochloride], the IC50 was in the range of 4 to 30 nM.

Regarding `Cc1ccccc1NC1CCN(CC(=O)N(C)c2ccc3c(c2)nc(CCc2ccc(C(=N)N)cc2)n3C)CC1` [Example 63, dihydrochloride], the IC50 is 4 to 30 nM.

For the compound `Cc1ccc(NC2CCN(CC(=O)N(C)c3ccc4c(c3)nc(CCc3ccc(C(=N)N)cc3)n4C)CC2)c(Cl)c1` [Example 61, N-{2-[2-(4-Amidinophenyl)-ethyl]-1-methyl-benzimidazol-5-yl}-N-methyl-2-[4-(2-chloro-4-methylamino)-piperid-1-yl]-acetamide, dihydrochloride], the IC50 lay in the range of 0.5 to 3 nM.

In the case of `CN(C(=O)CN1CCC(Nc2ccccc2OC(F)(F)F)CC1)c1ccc2c(c1)nc(CCc1ccc(C(=N)N)cc1)n2C` [Example 39, N-{2-[2-(4-Amidinophenyl)-ethyl]-1-methyl-benzimidazol-5-yl}-N-methyl-2-[4-(2-trifluoromethoxyphenylamino)-piperid-1-yl]-acetamide, dihydrochloride], the IC50 was 4 to 30 nM.
